Results taken from paper PMC9685055, “Biological activity of new bioactive steroids deriving from biotransformation of cortisone” (Microbial Cell Factories, 2022).

Columns and labels:
[1] = tested on: primary cultures of rat cerebral cortex neurons; assay: Glutamate-induced neurotoxicity, MTT viability; format: cell-based; settings: 10 μM, added 15 min before glutamate; viability 24 h later
Description: Primary cultures of cortical neurons have been prepared from 1 day-old male rats [41]. After re-suspension in the plating medium, the cells were counted and then plated on poly-l-lysine (5 μg/mL)-coated dishes at a density of 2.5 × 10^6 cells/dish or on poly-l-lysine (5 μg/mL)-coated 24-well plates at a density of 0.5 × 10^6 cells/dish. The plating medium consisted of Eagle's Basal Medium supplemented with 10% inactivated fetal calf serum, 25 mM KCl, 2 mM glutamine and 100 μg/mL gentamycine. […] Cytosine arabinoside (10 μM) was added within 24 h of plating to prevent glial cell proliferation [41]. The cultures were maintained for 8 days in vitro before experiments.
The cultures were then returned to the incubator in their growth medium. 24 h later, the glutamate-induced neurotoxicity was evaluated by measuring the neuronal viability. The different drugs tested were added 15 min before glutamate exposure and were present until the end of the experiment.
The integrity of mitochondrial enzymes in viable neurons was determined with a colorimetric assay using 3-[4,5-dimethylthial-2-yl]-3, 5-diphenyl-tetrazolinium bromide (MTT) salt, as described by Mosdam [42]. […] The precipitated dye was dissolved in isopropanol with 1 M HCl and colorimetrically (absorbance at 570 nm) quantified. The results were expressed as values of absorbance at 570 nm.

[2] = tested on: IL-8 gene expression in TNFα-stimulated HaCaT cells; assay: TNFα-induced IL-8 gene expression, real-time PCR; format: cell-based; settings: 10 μM pretreatment 24 h, then 10 ng/mL TNFα 1 h
Description: HaCaT cells were cultured with Dulbecco’s modified Eagle’s medium High Glucose (Lonza, Milan, Italy) supplemented with 10% FBS, 100 U/mL penicillin, 100 μg/mL streptomycin and 2 mM L-glutamine as previously described. Cells were maintained in a humidified incubator at 37 °C with 5% CO2 and incubated until the monolayer was 80% confluent. Medium was changed every 2 days.
HaCaT cells were pretreated with or without 10 μM of both SCA and SCB for 24 h. Stock solutions of the two compounds were prepared in DMSO immediately before use and diluted to the final concentration in the culture medium. In some sets of experiments, betamethasone-17-valerate (10 µg/mL) served as a positive control; dimethyl sulfoxide (DMSO) served as a solvent control. After the pretreatments, cells were stimulated with 10 ng/mL TNFα for 1 h to induce the NFκB signaling pathway. Then, media were replaced with fresh culture medium. Cells and supernatants were collected at different time points for each set of experiments as described below.
Quantitative real-time PCR was carried out as described in detail previously. Briefly, HaCaT cells were treated as indicated above and harvested for RNA extraction 3 h after the end of the proinflammatory stimulus with TNFα. […] Quantitative real-time PCR (qPCR) was performed using SYBR green on the CFX Multicolor real-time PCR detection system (Bio-Rad, Italy). […]

Row | Structure (SMILES) | effect on glutamate-induced neurotoxicity (cell viability, MTT) [1] | effect on TNFα-triggered IL-8 mRNA upregulation [2]
1 | Cc1ccc(O)c2c1CCC1C3CC[C@](O)(C(=O)CO)[C@@]3(C)CC(=O)[C@@]21O (stereo partly drawn) [SCA, 1,9β,17,21‐tetrahydoxy‐4‐methyl‐19‐nor‐9β‐pregna‐1,3,5(10)‐trien‐11,20‐dione] | partially reduced | completely abolish
2 | Cc1ccc(O)c2c1CCC1C3CC[C@](O)([C@H](O)CO)[C@@]3(C)CC(=O)[C@@]21O (stereo partly drawn) [SCB, 1,9β,17,20β,21‐ pentahydoxy‐4‐methyl‐19‐nor‐9β‐pregna‐1,3,5(10)‐trien‐11‐one] | partially reduced | completely abolish
